These results are taken from ChEMBL document CHEMBL3044845, “Synthesis and biological activity studies of furan derivatives” (2010).

Test [1] has as its system Bacillus subtilis. In words: Antibacterial activity against Bacillus subtilis RSKK 244 at 5 mg/ml after 24 hr by disk diffusion method. Format: functional. The conditions noted are these: for zone of inhibition at 5000 µg/mL: RSKK 244, 24 h, read-out: DIZ. (In general: Agar diffusion results depend on both activity and mobility in agar.)
Test [2] relates to Staphylococcus aureus. In words: Antibacterial activity against Staphylococcus aureus ATCC 25923 at 5 mg/ml after 24 hr by disk diffusion method. Format: functional. The conditions noted are these: ATCC 25923, 24 h, read-out: DIZ.
Test [3] has as its system Listeria monocytogenes. In words: Antibacterial activity against Listeria monocytogenes ATCC 7644 at 5 mg/ml after 24 hr by disc diffusion method. Type of test: functional. The conditions noted are these: for zone of inhibition at 5000 µg/mL: ATCC 7644, 24 h, read-out: DIZ.
The subject of test [4] is Salmonella enteritidis. In words: Antibacterial activity against Salmonella enterica subsp. enterica serovar Enteritidis ATCC 1376 at 5 mg/ml after 24 hr by disk diffusion method. Format: functional. The conditions noted are these: for zone of inhibition at 5000 µg/mL: ATCC 1376, 24 h, read-out: DIZ.
Test [5] concerns Escherichia coli. In words: Antibacterial activity against Escherichia coli ATCC […] at 5 mg/ml after 24 hr by disk diffusion method. Format: functional. The conditions noted are these: read-out: DIZ.
The subject of test [6] is Priestia megaterium. In words: Antibacterial activity against Bacillus megaterium ATCC 6633 at 5 mg/ml after 24 hr by disk diffusion method. Type of test: functional.
For test [7], the system named is Micrococcus luteus. In words: Antibacterial activity against Micrococcus luteus NRRLB 4375 at 5 mg/ml after 24 hr by disk diffusion method. Format: functional. As to conditions: for zone of inhibition at 5000 µg/mL: NRRLB 4375, 24 h, read-out: DIZ.
The test system of test [8] is Pseudomonas aeruginosa. In words: Antibacterial activity against Pseudomonas aeruginosa ATCC […] at 5 mg/ml after 24 hr by disk diffusion method. Format: functional. The conditions noted are these: for zone of inhibition at 5000 µg/mL: read-out: DIZ.
Test [9] has as its system Listeria monocytogenes. In words: Antibacterial activity against Listeria monocytogenes ATCC 7644 after 24 hr by disk diffusion method. Format: functional, organism-based.
Test [10] concerns Salmonella enteritidis. In words: Antibacterial activity against Salmonella enterica subsp. enterica serovar Enteritidis ATCC 1376 after 24 hr by disk diffusion method. Type of test: functional, organism-based.
For test [11], the system named is Pseudomonas aeruginosa. In words: Antibacterial activity against Pseudomonas aeruginosa ATCC […] after 24 hr by disk diffusion method. Type of test: functional, organism-based.
In test [12] the test system is Priestia megaterium. In words: Antibacterial activity against Bacillus megaterium ATCC 6633 after 24 hr by disk diffusion method. Type of test: functional.
The test system of test [13] is Micrococcus luteus. In words: Antibacterial activity against Micrococcus luteus NRRLB 4375 after 24 hr by disk diffusion method. Format: functional.
Test [14] deals with Bacillus subtilis. In words: Antibacterial activity against Bacillus subtilis RSKK 244 after 24 hr by disk diffusion method. Format: functional.
Test [15] relates to Staphylococcus aureus. In words: Antibacterial activity against Staphylococcus aureus ATCC 25923 after 24 hr by disk diffusion method. Type of test: functional.
In test [16] the test system is Escherichia coli. In words: Antibacterial activity against Escherichia coli ATCC […] after 24 hr by disk diffusion method. Type of test: functional.

Activity calls are given as the source filed them. No cut-off for these calls is given here.

Turning to `CCC1C(C#N)=C(c2ccccc2)OC1(c1ccccc1)c1ccccc1` (stereo not given), the zone of inhibition at 5000 µg/mL in the test on Bacillus subtilis [1] was determined as 11 mm; in the test with Staphylococcus aureus [2], 13 mm; in the test on Listeria monocytogenes [3], 11 mm; with Salmonella enteritidis [4] it was 13 mm; with Escherichia coli [5], 11 mm; in the test with Micrococcus luteus [7], 13 mm. Further, the zone of inhibition at 5000 µg/mL with Pseudomonas aeruginosa [8] worked out at 12 mm. Moreover, the “diameter of the inhibition zone (DIZ)” value in the test on Priestia megaterium [6] is “inactive”.
As to `CCC1C(C#N)=C(c2ccco2)OC1(c1ccccc1)c1ccccc1` (stereo not given), the zone of inhibition at 5000 µg/mL in the test with Bacillus subtilis [1] is 11 mm; in the test with Staphylococcus aureus [2], 10 mm; in the test on Listeria monocytogenes [3], 16 mm; in the test on Salmonella enteritidis [4], 10 mm; with Escherichia coli [5] it was 13 mm; in the test on Priestia megaterium [6] (ATCC 6633, 24 h, read-out: DIZ), 10 mm. In addition, the results for the zone of inhibition at 5000 µg/mL in the test on Micrococcus luteus [7] and in the test with Pseudomonas aeruginosa [8] were 14 mm and 12 mm, respectively.
Turning to `CCCC1(c2ccccc2)OC(c2ccccc2)=C(C#N)C1c1ccccc1` (stereo not given), the zone of inhibition at 5000 µg/mL in the test on Bacillus subtilis [1] was determined as 10 mm; with Staphylococcus aureus [2], 14 mm; in the test on Listeria monocytogenes [3] it was 18 mm; in the test on Salmonella enteritidis [4], 16 mm; with Escherichia coli [5], 12 mm; with Micrococcus luteus [7], 13 mm. Moreover, the zone of inhibition at 5000 µg/mL in the test on Pseudomonas aeruginosa [8] came out at 10 mm. Moreover, the “diameter of the inhibition zone (DIZ)” value with Priestia megaterium [6] is “inactive”.
As for GENTAMICIN, the inhibition zone (IZ) with Listeria monocytogenes [9] stood at 10 mm; with Salmonella enteritidis [10], 9 mm; with Pseudomonas aeruginosa [11], 16 mm.
Take `CC1(C)S[C@@H]2[C@H](NC(=O)[C@H](N)c3ccccc3)C(=O)N2[C@H]1C(=O)O` [AMPICILLIN]: the “diameter of the inhibition zone (DIZ)” value with Priestia megaterium [12] is 10 mm; in the test with Micrococcus luteus [13], 28 mm; with Bacillus subtilis [14] it was 15 mm; with Staphylococcus aureus [15], 9 mm.
Consider `CN(C)[C@@H]1C(O)=C(C(N)=O)C(=O)[C@@]2(O)C(O)=C3C(=O)c4c(O)cccc4[C@@](C)(O)[C@H]3C[C@@H]12` [TETRACYCLINE], for which, in the test with Micrococcus luteus [13], the “diameter of the inhibition zone (DIZ)” value was 9 mm.
On to `CCC1C(C#N)=C(c2cccs2)OC1(c1ccccc1)c1ccccc1` (stereo not given), for which the “diameter of the inhibition zone (DIZ)” value in the test with Bacillus subtilis [1], in the test with Listeria monocytogenes [3], in the test with Salmonella enteritidis [4], with Priestia megaterium [6], in the test with Micrococcus luteus [7] and with Pseudomonas aeruginosa [8] was “inactive” each time. For the same compound, the zone of inhibition at 5000 µg/mL is 8 mm with Staphylococcus aureus [2] and 10 mm in the test with Escherichia coli [5].
Regarding `CCCC1(c2ccccc2)OC(c2cc3ccccc3o2)=C(C#N)C1c1ccccc1` (stereo not given), the zone of inhibition at 5000 µg/mL with Bacillus subtilis [1] was 11 mm; with Staphylococcus aureus [2], 12 mm; in the test on Listeria monocytogenes [3], 13 mm; in the test with Salmonella enteritidis [4], 14 mm; with Escherichia coli [5] it was 10 mm; with Micrococcus luteus [7] it was 13 mm. Moreover, the zone of inhibition at 5000 µg/mL in the test on Pseudomonas aeruginosa [8] was determined as 10 mm. Besides, the “diameter of the inhibition zone (DIZ)” value with Priestia megaterium [6] was “inactive”.
On to `CC1(C)S[C@@H]2[C@H](NC(=O)Cc3ccccc3)C(=O)N2[C@H]1C(=O)O` [PENICILLIN G], for which the “diameter of the inhibition zone (DIZ)” value stood at 19 mm in the test with Escherichia coli [16] and 31 mm in the test on Micrococcus luteus [13].
